How the values were obtained:
Assay in all cases: radiometric filter-binding kinase assay
PLK1 (human) = PLK1 (human) (UniProt P53350); conditions: compound 1.0 µM; ATP 5 µM
IKBKB (human) = IKBKB (human) (UniProt O14920); conditions: compound 1.0 µM; ATP 5 µM
MAPK8 (human) = MAPK8 (human) (UniProt P45983); conditions: compound 1.0 µM; ATP 20 µM
PIM2 (human) = PIM2 (human) (UniProt Q9P1W9); conditions: compound 1.0 µM; ATP 5 µM
DYRK3 (human) = DYRK3 (human) (UniProt O43781); conditions: compound 1.0 µM; ATP 5 µM
ROCK2 (human) = ROCK2 (human) (UniProt O75116); conditions: compound 1.0 µM; ATP 20 µM
NEK7 (human) = NEK7 (human) (UniProt Q8TDX7); conditions: compound 1.0 µM; ATP 20 µM
LCK (mouse) = conditions: compound 1.0 µM, ATP 50 µM
AURKC (human) = AURKC (human) (UniProt Q9UQB9); conditions: compound 1.0 µM; ATP 5 µM
Sequence of AURKC (human) (Q9UQB9 whole entry, looked up): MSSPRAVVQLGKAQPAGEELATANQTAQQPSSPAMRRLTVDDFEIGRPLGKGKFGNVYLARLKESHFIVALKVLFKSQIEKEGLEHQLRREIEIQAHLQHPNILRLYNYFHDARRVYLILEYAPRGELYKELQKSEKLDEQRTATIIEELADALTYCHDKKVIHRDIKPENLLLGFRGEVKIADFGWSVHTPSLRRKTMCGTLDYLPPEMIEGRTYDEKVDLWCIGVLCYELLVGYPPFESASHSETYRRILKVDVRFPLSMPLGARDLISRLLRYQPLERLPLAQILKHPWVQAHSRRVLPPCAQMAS

AKT2 (human) = AKT2 (human) (UniProt P31751); conditions: compound 1.0 µM; ATP 50 µM
[1] = test system: RPS6KB1 (human), P23443 [T412E]; conditions: compound 1.0 µM; ATP 20 µM
Sequence of RPS6KB1 (human), P23443 [T412E] (P23443 whole entry T412E, looked up): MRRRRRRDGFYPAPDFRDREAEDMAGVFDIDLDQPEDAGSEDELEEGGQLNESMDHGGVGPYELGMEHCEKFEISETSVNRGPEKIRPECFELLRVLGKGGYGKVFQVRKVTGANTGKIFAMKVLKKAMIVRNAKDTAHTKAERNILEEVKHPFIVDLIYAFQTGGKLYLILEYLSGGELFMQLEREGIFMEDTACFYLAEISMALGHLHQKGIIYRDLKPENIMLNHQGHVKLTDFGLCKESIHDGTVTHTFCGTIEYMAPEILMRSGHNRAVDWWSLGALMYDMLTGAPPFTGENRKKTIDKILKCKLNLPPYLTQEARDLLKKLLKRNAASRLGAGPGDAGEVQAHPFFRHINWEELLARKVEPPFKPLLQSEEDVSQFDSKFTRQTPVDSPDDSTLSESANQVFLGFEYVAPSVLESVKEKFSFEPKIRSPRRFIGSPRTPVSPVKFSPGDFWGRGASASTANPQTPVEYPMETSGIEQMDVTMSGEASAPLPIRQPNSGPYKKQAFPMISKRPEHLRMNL

GSK3B (human) = GSK3B (human) (UniProt P49841); conditions: compound 1.0 µM; ATP 5 µM
[2] = test system: SGK1 (human), O00141 [S422D]; conditions: compound 1.0 µM; ATP 20 µM
MKNK2 (human) = MKNK2 (human) (UniProt Q9HBH9); conditions: compound 1.0 µM; ATP 50 µM
CHEK1 (human) = CHEK1 (human) (UniProt O14757); conditions: compound 1.0 µM; ATP 20 µM
MAPK15 (human) = MAPK15 (human) (UniProt Q8TD08); conditions: compound 1.0 µM; ATP 5 µM
PRKCG (human) = PRKCG (human) (UniProt P05129); conditions: compound 1.0 µM; ATP 5 µM
MAPK14 (human) = MAPK14 (human) (UniProt Q16539); conditions: compound 1.0 µM; ATP 50 µM
EEF2K (human) = EEF2K (human) (UniProt O00418); conditions: compound 1.0 µM
MELK (human) = MELK (human) (UniProt Q14680); conditions: compound 1.0 µM; ATP 50 µM
Sequence of MELK (human) (Q14680 whole entry, looked up): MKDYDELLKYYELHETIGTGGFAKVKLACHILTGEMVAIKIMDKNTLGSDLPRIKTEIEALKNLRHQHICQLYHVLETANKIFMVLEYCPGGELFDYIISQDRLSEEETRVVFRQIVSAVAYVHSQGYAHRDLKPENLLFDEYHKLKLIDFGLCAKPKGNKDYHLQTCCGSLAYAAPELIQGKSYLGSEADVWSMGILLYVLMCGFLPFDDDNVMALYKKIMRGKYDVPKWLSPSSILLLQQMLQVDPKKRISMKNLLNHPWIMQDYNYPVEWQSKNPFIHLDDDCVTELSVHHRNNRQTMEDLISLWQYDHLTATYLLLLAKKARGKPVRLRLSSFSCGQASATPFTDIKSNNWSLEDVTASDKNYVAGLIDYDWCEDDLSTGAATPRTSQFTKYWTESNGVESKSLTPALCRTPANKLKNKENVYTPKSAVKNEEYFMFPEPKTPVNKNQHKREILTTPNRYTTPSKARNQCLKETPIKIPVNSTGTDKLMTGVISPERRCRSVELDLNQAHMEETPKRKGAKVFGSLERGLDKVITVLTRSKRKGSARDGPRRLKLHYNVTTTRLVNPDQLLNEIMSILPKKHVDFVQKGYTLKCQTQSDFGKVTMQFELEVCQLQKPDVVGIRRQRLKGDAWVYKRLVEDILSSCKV

CDK2 CCNA2 (human) = CDK2 CCNA2 (human) (UniProt P24941+P20248); conditions: compound 1.0 µM
RPS6KA1 KD1 KD2 (human) = RPS6KA1 KD1 KD2 (human) (UniProt Q15418); conditions: compound 1.0 µM; ATP 50 µM
[3] = target: PRKACA or PRKACB or PRKACG (human) (UniProt P22694+P22612+P17612); conditions: compound 1.0 µM
PRKAA1 or PRKAA2 (rat) = conditions: compound 1.0 µM
MAPK9 (human) = MAPK9 (human) (UniProt P45984); conditions: compound 1.0 µM; ATP 20 µM
MAPKAPK5 (human) = MAPKAPK5 (human) (UniProt Q8IW41); conditions: compound 1.0 µM; ATP 20 µM
Sequence of MAPKAPK5 (human) (Q8IW41 whole entry, looked up): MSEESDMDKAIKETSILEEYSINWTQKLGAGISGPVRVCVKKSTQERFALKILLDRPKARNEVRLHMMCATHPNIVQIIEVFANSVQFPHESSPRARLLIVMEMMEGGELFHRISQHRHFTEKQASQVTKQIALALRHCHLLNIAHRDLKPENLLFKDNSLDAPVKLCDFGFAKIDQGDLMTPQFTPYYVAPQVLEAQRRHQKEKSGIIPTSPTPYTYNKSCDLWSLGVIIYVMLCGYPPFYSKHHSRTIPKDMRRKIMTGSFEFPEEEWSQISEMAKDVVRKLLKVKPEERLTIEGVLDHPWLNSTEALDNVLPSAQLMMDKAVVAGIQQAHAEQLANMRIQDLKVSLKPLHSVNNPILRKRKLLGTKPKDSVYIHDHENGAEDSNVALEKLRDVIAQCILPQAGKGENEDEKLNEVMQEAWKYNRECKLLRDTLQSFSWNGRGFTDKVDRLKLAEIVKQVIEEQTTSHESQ

CaMK1 (human) = CaMK1 (human) (UniProt Q14012); conditions: compound 1.0 µM; ATP 50 µM
RPS6KA5 KD1 KD2 (human) = RPS6KA5 KD1 KD2 (human) (UniProt O75582); conditions: compound 1.0 µM; ATP 20 µM
RPS6KA3 KD1 KD2 (human) = RPS6KA3 KD1 KD2 (human) (UniProt P51812); conditions: compound 1.0 µM; ATP 50 µM
DYRK2 (human) = DYRK2 (human) (UniProt Q92630); conditions: compound 1.0 µM; ATP 50 µM
Sequence of DYRK2 (human) (Q92630 whole entry, looked up): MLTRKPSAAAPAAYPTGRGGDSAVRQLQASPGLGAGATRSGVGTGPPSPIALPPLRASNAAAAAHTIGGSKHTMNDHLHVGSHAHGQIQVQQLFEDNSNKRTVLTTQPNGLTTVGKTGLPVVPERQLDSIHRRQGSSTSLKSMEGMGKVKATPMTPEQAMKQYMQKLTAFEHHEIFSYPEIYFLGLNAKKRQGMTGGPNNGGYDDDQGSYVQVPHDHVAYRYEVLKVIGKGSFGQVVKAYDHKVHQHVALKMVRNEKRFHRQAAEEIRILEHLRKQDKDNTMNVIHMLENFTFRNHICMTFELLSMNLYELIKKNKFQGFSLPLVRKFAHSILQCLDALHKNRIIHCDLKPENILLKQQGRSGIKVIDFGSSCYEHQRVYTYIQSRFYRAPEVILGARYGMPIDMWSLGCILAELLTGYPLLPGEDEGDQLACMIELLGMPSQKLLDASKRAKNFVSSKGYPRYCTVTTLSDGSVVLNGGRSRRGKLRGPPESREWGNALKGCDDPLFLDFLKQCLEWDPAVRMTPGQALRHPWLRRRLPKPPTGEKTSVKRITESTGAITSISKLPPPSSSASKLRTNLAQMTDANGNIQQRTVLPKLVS

PIM3 (human) = PIM3 (human) (UniProt Q86V86); conditions: compound 1.0 µM; ATP 20 µM
MAP2K1 (human) = MAP2K1 (human) (UniProt Q02750); conditions: compound 1.0 µM; ATP 5 µM
MAPK12 (human) = MAPK12 (human) (UniProt P53778); conditions: compound 1.0 µM; ATP 5 µM
PHKG1 or PHKG2 (human) = PHKG1 or PHKG2 (human) (UniProt P15735+Q16816); conditions: compound 1.0 µM; ATP 50 µM
MKNK1 (human) = MKNK1 (human) (UniProt Q9BUB5); conditions: compound 1.0 µM; ATP 50 µM
SRPK1 (human) = SRPK1 (human) (UniProt Q96SB4); conditions: compound 1.0 µM; ATP 50 µM
NEK2 (human) = NEK2 (human) (UniProt P51955); conditions: compound 1.0 µM; ATP 50 µM
BRSK2 (human) = BRSK2 (human) (UniProt Q8IWQ3); conditions: compound 1.0 µM; ATP 50 µM
Sequence of BRSK2 (human) (Q8IWQ3 whole entry, looked up): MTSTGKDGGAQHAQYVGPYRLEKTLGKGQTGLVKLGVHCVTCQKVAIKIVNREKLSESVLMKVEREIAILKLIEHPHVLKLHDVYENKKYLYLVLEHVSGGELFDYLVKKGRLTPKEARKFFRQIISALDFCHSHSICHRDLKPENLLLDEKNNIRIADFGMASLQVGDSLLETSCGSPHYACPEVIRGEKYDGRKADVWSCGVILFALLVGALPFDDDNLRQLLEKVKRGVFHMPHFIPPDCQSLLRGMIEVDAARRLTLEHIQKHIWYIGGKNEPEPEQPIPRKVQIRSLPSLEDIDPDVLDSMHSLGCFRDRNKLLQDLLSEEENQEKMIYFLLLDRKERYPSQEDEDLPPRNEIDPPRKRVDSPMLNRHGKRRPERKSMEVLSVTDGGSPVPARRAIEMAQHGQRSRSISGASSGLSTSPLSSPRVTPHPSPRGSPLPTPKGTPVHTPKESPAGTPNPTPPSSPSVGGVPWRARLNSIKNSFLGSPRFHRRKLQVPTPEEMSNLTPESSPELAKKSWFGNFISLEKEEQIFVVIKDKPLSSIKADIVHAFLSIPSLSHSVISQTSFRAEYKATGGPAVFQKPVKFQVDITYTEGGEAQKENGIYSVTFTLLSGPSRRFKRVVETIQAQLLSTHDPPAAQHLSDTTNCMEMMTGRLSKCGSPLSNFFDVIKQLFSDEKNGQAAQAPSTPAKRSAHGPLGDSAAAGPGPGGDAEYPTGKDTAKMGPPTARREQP

[4] = accession and sequence are those of the human protein

Sequence of IKBKB (human) (O14920 whole entry, looked up): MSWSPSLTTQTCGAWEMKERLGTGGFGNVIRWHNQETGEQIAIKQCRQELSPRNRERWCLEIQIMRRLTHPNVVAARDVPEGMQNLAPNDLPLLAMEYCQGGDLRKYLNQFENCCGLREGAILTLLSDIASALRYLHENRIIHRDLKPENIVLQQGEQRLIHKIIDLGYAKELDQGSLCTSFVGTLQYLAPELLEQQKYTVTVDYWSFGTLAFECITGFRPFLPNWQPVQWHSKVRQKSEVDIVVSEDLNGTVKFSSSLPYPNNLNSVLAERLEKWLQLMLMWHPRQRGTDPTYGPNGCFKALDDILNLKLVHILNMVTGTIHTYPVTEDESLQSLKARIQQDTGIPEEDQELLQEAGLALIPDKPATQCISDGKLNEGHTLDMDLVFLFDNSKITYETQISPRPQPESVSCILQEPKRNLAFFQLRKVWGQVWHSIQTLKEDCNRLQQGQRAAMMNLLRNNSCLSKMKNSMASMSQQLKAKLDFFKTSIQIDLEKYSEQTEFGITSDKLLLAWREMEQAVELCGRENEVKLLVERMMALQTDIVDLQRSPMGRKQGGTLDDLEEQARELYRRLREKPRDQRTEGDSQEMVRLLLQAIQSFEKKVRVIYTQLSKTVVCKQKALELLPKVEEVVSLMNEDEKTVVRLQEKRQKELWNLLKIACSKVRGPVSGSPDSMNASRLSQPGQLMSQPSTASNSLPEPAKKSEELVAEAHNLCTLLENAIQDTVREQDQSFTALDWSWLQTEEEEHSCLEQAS

| SMILES | residual activity (PLK1 (human)) [%] | residual activity (IKBKB (human)) [%] | residual activity (MAPK8 (human)) [%] | residual activity (PIM2 (human)) [%] | residual activity (DYRK3 (human)) [%] | residual activity (ROCK2 (human)) [%] | residual activity (NEK7 (human)) [%] | residual activity (AURKC (human)) [%] | residual activity (AKT2 (human)) [%] | residual activity [1] [%] | residual activity (GSK3B (human)) [%] | residual activity [2] [%] | residual activity (MKNK2 (human)) [%] | residual activity (CHEK1 (human)) [%] | residual activity (MAPK15 (human)) [%] | residual activity (PRKCG (human)) [%] | residual activity (MAPK14 (human)) [%] | residual activity (MELK (human)) [%] | residual activity (RPS6KA1 KD1 KD2 (human)) [%] | residual activity (MAPKAPK5 (human)) [%] | other results |
| --- | --- | --- | --- | --- | --- | --- | --- | --- | --- | --- | --- | --- | --- | --- | --- | --- | --- | --- | --- | --- | --- |
| COc1ccc2c(c1)=NC1=C(C)NCCC=21 | 80 | 94 | 96 | 117 | 49 | 79 | 107 | 99 | 105 | 93 | 100 | 85 | 92 | 94 | 44 | 84 | 88 | 95 | 110 | 74 | residual activity (LCK (mouse)): 81%; residual activity (EEF2K (human)): 107%; residual activity (CDK2 CCNA2 (human)): 100%; residual activity [3]: 89%; residual activity (PRKAA1 or PRKAA2 (rat)): 106%; residual activity (MAPK9 (human)): 86%; residual activity (CaMK1 (human)): 103%; residual activity (RPS6KA5 KD1 KD2 (human)): 94%; residual activity (RPS6KA3 KD1 KD2 (human)): 112%; residual activity (DYRK2 (human)): 73%; residual activity (PIM3 (human)): 90%; residual activity (MAP2K1 (human)): 95%; residual activity (MAPK12 (human)): 120%; residual activity (PHKG1 or PHKG2 (human)): 84%; residual activity (MKNK1 (human)): 80%; residual activity (SRPK1 (human)): 89%; residual activity (NEK2 (human)): 96%; residual activity (BRSK2 (human)): 103% |
| CO[C@H]1CC2CC[C@@H](C)[C@@](O)(O2)C(=O)C(=O)N2CCCC[C@H]2C(=O)OC([C@H](C)C[C@@H]2CC[C@@H](O)[C@H](OC)C2)CC(=O)[C@H](C)/C=C(\C)[C@@H](O)[C@@H](OC)C(=O)[C@H](C)C[C@H](C)/C=C/C=C/C=C/1C (stereo not given in full) | 78 | 82 | 90 | 117 | 88 | 103 | 102 | 97 | 85 | 106 | 83 | 93 | 102 | 97 | 97 | 92 | 75 | 74 | 90 | 91 | residual activity (LCK (mouse); [4]): 79%; residual activity (EEF2K (human); ATP 5 µM): 94%; residual activity (CDK2 CCNA2 (human); ATP 20 µM): 92%; residual activity ([3]; ATP 20 µM): 77%; residual activity (PRKAA1 or PRKAA2 (rat); [4]): 87%; residual activity (MAPK9 (human)): 81%; residual activity (CaMK1 (human)): 97%; residual activity (RPS6KA5 KD1 KD2 (human)): 86%; residual activity (RPS6KA3 KD1 KD2 (human)): 97%; residual activity (DYRK2 (human)): 84%; residual activity (PIM3 (human)): 88%; residual activity (MAP2K1 (human)): 93%; residual activity (MAPK12 (human)): 81%; residual activity (PHKG1 or PHKG2 (human)): 95%; residual activity (MKNK1 (human)): 83%; residual activity (SRPK1 (human)): 84%; residual activity (NEK2 (human)): 82%; residual activity (BRSK2 (human)): 90% |
| O=S(=O)(NCCNC/C=C/c1ccc(Br)cc1)c1cccc2cnccc12 | 95 | 98 | 88 | 91 | 65 | 6 | 99 | 73 | 21 | 11 | 88 | 62 | 97 | 71 | 93 | 55 | 99 | 43 | 36 | 89 | residual activity (EEF2K (human); ATP 5 µM): 102%; residual activity (CDK2 CCNA2 (human); ATP 20 µM): 75%; residual activity ([3]; ATP 20 µM): 15%; residual activity (PRKAA1 or PRKAA2 (rat); [4]): 73%; residual activity (CaMK1 (human)): 101%; residual activity (RPS6KA5 KD1 KD2 (human)): 9%; residual activity (RPS6KA3 KD1 KD2 (human)): 55%; residual activity (DYRK2 (human)): 105%; residual activity (PIM3 (human)): 91%; residual activity (PHKG1 or PHKG2 (human)): 76%; residual activity (MKNK1 (human)): 90%; residual activity (SRPK1 (human)): 93%; residual activity (NEK2 (human)): 102%; residual activity (BRSK2 (human)): 82% |
